Source: US4629740A, “Anticonvulsant agents” (Eli Lilly and Company, priority 1984, dated 1986)

Columns and labels:
[1] = system: Cox standard strain albino male mice (extensor tonic convulsions); assay: electroshock induced convulsion inhibition assay (E.S.); assay type: in vivo; conditions: for ED50: Mus musculus, po, 1 h, by gavage, 60 minutes before 0.1 second, 50 milliampere corneal electroshock, inhibition of extensor tonic convulsions in one half of mice
Protocol: (§1) In the electroshock induced convulsion inhibition assay (E.S.), the compound to be tested was dissolved in water (5%--sufficient hydrochloric acid was added for those compounds which were not isolated as a salt in order to effect dissolution) and administered by gavage to each of three Cox standard strain albino male mice (18-24 g.) at the dose level being investigated. Sixty minutes after compound administration, the mice were subjected to a 0.1 second, 50 milliampere electroshock through corneal electrodes. The animals were examined and evaluated immediately after the electroshock for the occurrence of clonic, flexor tonic, or extensor tonic convulsions, or death and the ED50 was determined for each compound as the dose which inhibited the occurrence of extensor tonic convulsions in one half of the animals immediately after the electroshock. For comparison, 18 milliamperes was usually sufficient to produce extensor tonic convulsions in about half of the control animals; at 50 milliamperes, almost all control animals (receiving vehicle only) died.

[2] = protective index (P.I.), ratio of horizontal screen ED50 over electroshock ED50; assay type: in vivo, mice; conditions: mouse, in vivo, po; mice, gavage; read-out: Protective Index (H.S. ED50 /E.S. ED50)
Protocol: as §1
(§2) The compounds were also evaluated for determining toxic potential. In determining toxic potential as manifested by neurological deficit, ataxia, or sedation, the "horizontal screen" (H.S.) was employed. This test is well accepted as a measure of impaired motor function in mice. The methodology was identical to that taught by Coughenour, et al., Pharmacology, Biochemistry and Behavior, 6, 351 (1977). For each compound, the ED50 was determined as the dose which caused one half of the animals to fail to reach the top of the screen. The compounds were administered to the mice in the same manner as described above for the electroshock assay 60 minutes before they were tested in the horizontal screen assay.
(§3) From the above two test systems, the protective index (P.I.) can be calculated as the ratio of the horizontal screen ED50 over the ED50 of the electroshock assay. Thus, a large P.I. is indicative of a broader therapeutic range. A large P.I. thus provides a wide margin of safety allowing greater flexibility in treating epilepsy and other convulsive disorders.

[3] = in vivo; parameters: species or system mice; conditions: mouse, po
Protocol: as §2

[4] = system: maximal electroshock seizure; conditions: racemic form; reported in U.S. Pat. No. 4,379,165; cited from earlier work
[5] = system: mice; assay: protective index (P.I.), ratio of horizontal screen ED50 over electroshock ED50; assay type: in vivo; conditions: enantiomers compared with each other or the racemate
Protocol: as §1, §2, §3

[6] = system: seizures in man; conditions: cited from earlier work

SMILES	ED50 [1] [mg/kg]	selectivity ratio at 1 h [2]	TD50 at 1 h [3] [mg/kg]	protective index (P.I.), TD50 (Rotorod) to ED50 (maximal electroshock seizure) [4]	protective index (in words) [5]	anticonvulsant potency (in words) ([1]; (S)-isomer compared with (R)-isomer and racemate)	plasma level at which seizures are controlled ([6]; Gilman, Goodman, and Gilman, 6th Ed.) [µg/mL]	plasma level at which ataxia is obvious [6] [µg/mL]	plasma level at which lethargy is apparent [6]	plasma level at which nystagmus is seen [6]
CC(NC(=O)c1ccc(N)cc1)c1ccccc1 (racemic) [(R,S), (R,S)-4-amino-N-(1-phenylethyl)benzamide]	12.5	8.4	105	9.48						
C[C@@H](NC(=O)c1ccc(N)cc1)c1ccccc1 [(R), (R)-4-amino-N-(1-phenylethyl)benzamide]	17.8	27	480		increased protective index ratio					
C[C@H](NC(=O)c1ccc(N)cc1)c1ccccc1 [(S), (S)-4-amino-N-(1-phenylethyl)benzamide]	10	14.1	141			more potent as an anticonvulsant agent than either the (R)-isomer or the racemate				
O=C1NC(=O)C(c2ccccc2)(c2ccccc2)N1 [phenytoin]							≥ 10	30	about 40 mcg./ml.	around 20 mcg./ml.
